One compound from US20140187556A1, “ANTI-AMYLOID COMPOUNDS AND METHODS” (Treventis Corporation, priority 2011, published 2014) can be followed below.

A short description of data set [1]: Metabolic stability in mouse liver microsomes. Format: in vitro ADME. The conditions noted are these: 1 μM compound, 0.5 mg/mL microsomal protein, 1 mM NADPH. The procedure:
This assay is used to determine the percent remaining and intrinsic clearance of a test compound incubated with pooled mouse liver microsomes in the presence of NADPH. Further details on this method may be found in Jeffrey P, et al., Utility of metabolic stability screening: comparison of in vitro and in vivo clearance. enobiotica. 2001 August-September; 31(8-9):591-8 and Lin J H, et al., Role of pharmacokinetics and metabolism in drug discovery and development. Pharmacol Rev. 1997; 49(4):403-49; each of which is hereby incorporated by reference. Test compound was formulated in 300 μL of DMSO at 10 mM and was diluted to 1 μM with final concentration of organic solvent <0.25% for the experiment. Pooled liver microsomes were prepared from male mice, with 1 mM NADPH. Test compound was incubated at 37 degrees Celsius in buffer containing 0.5 mg/mL microsomal protein; the reaction was initiated by adding cofactors and sampled at 0, 10, 20, 30, and 60 minutes. A positive control (5 μM testosterone) was incubated and initiated in parallel for quality control. Samples were analyzed using an LTQ-Orbitrap XL mass spectrometer; HRMS was used to determine the peak area response ratio (peak area corresponding to test compound or control divided by that of an analytical internal standard) without running a standard curve.
Results were reported for selected compounds in the table of Example 1, as % test compound remaining after 60 minutes. Compounds which have less than about 5% remaining are not considered to be metabolically stable in mouse liver microsomes, while compounds with more than about 5% remaining are considered to be metabolically stable in mouse liver microsomes.
For orientation: Liver microsomes are a subcellular fraction often used to study metabolism.

The target in data set [2] is T1, Aβ40 (Homo sapiens, UniProt P05067).
T1 construct: pre-treated Aβ40 (40 μM in 20 mM Tris, pH 7.4)
Description: Thioflavin T (ThT) Aβ aggregation assay. The settings on record: 20 μM Aβ40, 37 degrees C. The data set is classed as biochemical. Summed up: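 Aβ40 was HFIP-pretreated to remove preformed aggregates; 20 µM Aβ40 incubated with compound and 4 µM ThT in 20 mM Tris pH 7.4, 150 mM NaCl, 1% DMSO at 37 °C. Fluorescence (ex 450/em 480 nm) read every 15 min after shaking; inhibition judged by attenuated fluorescence rise versus DMSO controls.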

Data set [3] is described as follows: In vivo blood and brain exposure and brain/plasma ratio in ICR mice. The conditions noted are these: male ICR mice. The procedure: TRV 1140 was formulated in 3% N-methyl-2-pyrrolidone, 0.5% Cremaphor, 50% olive oil in water. The compound was formulated at a concentration of 2 mg/mL and dosed in a volume of 10 mL/kg to produce a dose of 20 mg/kg. The formulation was an emulsion. Compound was formulated fresh daily. Mice were dosed once daily for three days. Male ICR mice (S.A. Ace Animals; Boyertown, Pa.) were used for this experiment. Animals were group housed and kept on a standard 12 hr light cycle. Food and water were available ad libitum. On the third day mice were dosed with compound. At the designated time after 20 mg/kg dosing (30 min, 2 hrs, 4 hrs), whole blood was collected via the retro-orbital sinus in heparanized tubes and mixed with deionized water at a 1:1 ratio for hemolyzation. Hemolyzed blood was analyzed for levels of test agent. Blood samples were extracted by a standard protocol known in the art. At designated time points, mice were sacrificed. Brains were removed, weighed, and processed. Brains were homogenized and test agent extracted with an acetonitrile homogenization method (1 mL acetonitrile: 1 g brain). Supernatant samples were stored at −80° C. for subsequent analysis of brain levels of test compound. Brain levels of test agent were analyzed by LC/MS/MS.

For data set [4], the system named is 5xFAD mouse. Description: In vivo efficacy trial in the 5xFAD transgenic AD mouse model. The settings on record: wildtype littermate mice. From the text: The 5xFAD mouse (B6SJL-Tg(SwFLon,PSEN1*M 146L*L286V)6799Vas/J; JAX #006554) overexpresses human APP(695) with the Swedish (K670N,M671L), Florida (I716V) and London (V717I) familial AD (FAD) mutations, as well as human presenilin 1 (PSI) with two FAD mutations (M 146L and L286V). These five mutations act additively, leading to large and rapid age-related increases in neuronal Aβ-40 and Aβ-42 peptides beginning at 2 months of age. […] Extra-cellular Aβ plaques are first observed in the hippocampus, subiculum, frontal cortex and spinal cord at 2-3 months of age and increase with age. No neurofibrillary tangles (tau) are observed in the brains of 5xFAD mice. […] Active astrocytes are commonly found surrounding β-amyloid plaques and levels of the pre-synaptic marker synaptophysin are decreased, indicating a decrease in synaptic connectivity to the 5xFAD mouse (Oakley et al., 2006). […] Age-related cognitive impairment in visuo-spatial working memory in the Y-maze occurs at 4-5 months of age. […]
The general procedure for an in vivo efficacy trial with 5xFAD mice is as follows. […] After behavioral testing, mice are sacrificed and their blood and brains assessed for Aβ levels.

Molecules are shown by their SMILES. Read-outs that look alike come from different tables or passages of the source.

T1 sequence (P05067 672-711 limits assumed): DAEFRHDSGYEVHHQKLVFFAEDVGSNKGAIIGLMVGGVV

For orientation: IC50 means the midpoint of a concentration-inhibition curve. Low readings indicate greater potency in that assay, high ones weaker potency in that assay. As usually defined, the Kp is tissue or fluid exposure divided by exposure in the circulation. `O=[N+]([O-])c1ccc(-c2cccc(C(O)C(F)(F)F)c2)cc1NCc1ccccc1` (stereo not shown) [TRV 1140, 1-(3′-(benzylamino)-4′-nitro-[1,1′-biphenyl]-3-yl)-2,2,2-trifluoroethanol]: in data set [1], the “Stability in mouse liver microsomes (% test compound remaining after 60 min)” value came out at 34%. The compound further registered an IC50 in data set [2] of 3.09 ± 0.21 µM. In addition, the brain penetrance result in data set [3] (20 mg/kg) is listed as “highly brain penetrable”. Moreover, the “time of maximum concentration (blood and brain)” value in data set [3] (20 mg/kg once daily, third day) was determined as 4 h. Moreover, the “total drug exposure in blood” value in data set [3] (20 mg/kg once daily, third day, 0-4 hr) worked out at 450 ng·h/mL. Further, the “total drug exposure in brain” value in data set [3] (20 mg/kg once daily, third day, 0-4 hr, mean of two samples) was 694 ng·h/mL. Besides, in data set [3] (mouse, brain / plasma (method describes hemolyzed whole blood), 20 mg/kg once daily, third day), the concentration ratio (Kp) came to 1.54. Further, the Cmax in data set [3] (mouse, brain, 20 mg/kg once daily, third day, read-out: Maximum concentration (Cmax) in brain) stood at 238 ng/mL; in data set [3] (mouse, whole blood, 20 mg/kg once daily, third day, read-out: Maximum concentration (Cmax) in blood), 87.5 ng/mL. Moreover, in data set [4], the “behavioural performance, WT with compound versus WT with vehicle” value is given as “no difference in behavioural performance”.
